Literature values as cited in patent US9000190B2, “Amide compound or salt thereof, biofilm inhibitor, biofilm remover and disinfectant containing the same” (The University of Tokyo, priority 2006, dated 2015).

Legend:
Conditions in all cases: Publicly-known data; cited from earlier work
E. coli ATCC 25922 = tested on: E. coli ATCC 25922
S. aureus ATCC 29213 = tested on: S. aureus ATCC 29213
P. aeruginosa ATCC 27853 = tested on: P. aeruginosa ATCC 27853

## NC[C@H]1O[C@H](O[C@H]2[C@H](O)[C@@H](O[C@H]3O[C@H](CO)[C@@H](O)[C@H](N)[C@H]3O)[C@H](N)C[C@@H]2N)[C@H](N)C[C@@H]1O [TOB, Tobramycin]
E. coli ATCC 25922
  MIC (μg/mL) from M100-S16: 0.25 to 1 µg/mL
S. aureus ATCC 29213
  MIC (μg/mL) from M100-S16: 0.12 to 1 µg/mL
P. aeruginosa ATCC 27853
  MIC (μg/mL) from M100-S16: 0.25 to 1 µg/mL
